Assay results taken from US8575214B2, “MGlu 2/3 agonists” (Eli Lilly and Company, priority 2012, dated 2013).

Columns and labels:
[1] = test system: male, Sprague-Dawley rats; assay: Reversal of phencyclidine (PCP)-induced hyperlocomotor activity in rats; type: in vivo, rat; conditions: Rattus norvegicus; p.o., overnight fasted rats, 4 hours prior to 5 mg/kg PCP
Description: Motor activity is monitored by placing individual male, Sprague-Dawley (Harlan, Indianapolis, Ind.) rats in transparent, plastic shoe-box cages of the dimensions 45×25×20 cm, with 1 cm depth of wood chips as bedding, and a metal grill on top of the cage. Motor monitors (Kinder Scientific) consist of a rectangular rack of 12 photobeams arranged in an 8×4 formation, (or a high density grouping of 22 in a 15×7 pattern) at a height of 5 cm, with a second rack (for measuring rearing behaviors) at a height of 15 cm. The shoe box cage is placed inside of these racks, with the racks on a 3 foot high tabletop in an isolated room. A compound of the invention (active) is dosed (intraperitoneal route) within a range of 0.3-10 mg/kg, 30 minutes prior to a 5 mg/kg challenge dose of phencyclidine (PCP). A compound of the invention (prodrug) is orally dosed within a range of 0.3-30 mg/kg, in overnight fasted rats, 4 hours prior to a 5 mg/kg challenge dose of PCP. On the test day, rats are placed in the test cage and allowed to acclimate for 30 minutes prior to PCP challenge; rats are monitored for an additional 60 minutes following PCP administration.
Data analysis and ED50 calculations are conducted using GraphPad Prism (San Diego, Calif. USA). Power analyses have determined that 8-10 rats per group are needed to have appropriate statistical power for detecting treatment differences (power=0.8). A one-way analysis of variance (ANOVA) with a post-hoc Dunnett's multiple comparison test is conducted on the total 60 minute locomotor activity. ED50 calculations are performed using non-linear regression curve fitting on percent reversal transformed data for each dose.

hPepT1 = target: T1, hPepT1 (Homo sapiens, UniProt P46059); assay: In vitro PepT1 GlySar inhibition screen and IC50 determination; type: cell-based; conditions: PepT1 transiently transfected HeLa cells; for inhibition at 5000 µM: pH 6.0, 3 minutes, read-out: hPepT1 [3H]Gly-Sar uptake inhibition at 5 mM
T1 construct: expressed in transfected cells; host or cells: HeLa cells (ATCC), transient transfection with PepT1 DNA using FuGene6
T1 sequence (P46059 1-708): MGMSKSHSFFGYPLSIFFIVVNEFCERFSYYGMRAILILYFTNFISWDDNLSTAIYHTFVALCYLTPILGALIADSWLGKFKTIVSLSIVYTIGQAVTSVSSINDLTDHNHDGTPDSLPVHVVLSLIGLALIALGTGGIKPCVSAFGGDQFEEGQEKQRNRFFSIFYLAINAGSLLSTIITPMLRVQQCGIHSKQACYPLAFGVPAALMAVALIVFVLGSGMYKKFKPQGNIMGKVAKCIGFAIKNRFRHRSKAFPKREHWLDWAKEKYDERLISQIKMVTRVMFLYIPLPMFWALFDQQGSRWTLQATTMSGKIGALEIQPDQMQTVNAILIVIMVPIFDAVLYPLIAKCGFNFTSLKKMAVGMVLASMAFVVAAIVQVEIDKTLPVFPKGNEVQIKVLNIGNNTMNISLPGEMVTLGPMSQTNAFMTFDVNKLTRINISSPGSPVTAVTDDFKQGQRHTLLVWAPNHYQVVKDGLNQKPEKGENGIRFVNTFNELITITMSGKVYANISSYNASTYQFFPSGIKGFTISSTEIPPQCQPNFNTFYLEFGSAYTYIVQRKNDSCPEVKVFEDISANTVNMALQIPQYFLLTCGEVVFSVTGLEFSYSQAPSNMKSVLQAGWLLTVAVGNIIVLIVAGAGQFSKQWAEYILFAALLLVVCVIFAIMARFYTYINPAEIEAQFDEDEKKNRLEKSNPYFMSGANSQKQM
Protocol: HeLa cells, […], (American Type Culture Collection) are grown in Hyclone Medium (Invitrogen, Cat# SH30243) containing 10% fetal bovine serum (FBS), 0.1 mM non essential amino acids (NEAA), and 100 units/mL penicillin with 100 μg/mL streptomycin at 37° C. in a 5% CO2 humidified atmosphere. The cell line is used for up to 40 passages and then discarded. Frozen cells in 1 ml vials are thawed in water bath for 1-2 minutes and added to 5 mL of cell medium at 37° C. Each of the T-flasks is provided with 8.5 mL of the fresh medium and 1.5 mL of the cell stock. Cells are passaged twice during a week. This is achieved by rinsing the flasks with 10 mL of phosphate buffered saline-ethylene diaminetetra acetic acid (PBS-EDTA), adding 2 mL of trypsin for 2-5 minutes, to detach the cells, and adding 8 mL of fresh medium to inhibit further activity of trypsin. Each new flask receives a combination of 8.5 mL of fresh medium and 1.5 mL of cell stock, in order to obtain 1:6 cell dilution. Cells are incubated at 37° C., until ready for the uptake study.
Cells that are 70-80% confluent in the T-flasks are plated 1 day prior to the transfection procedure. The flask with the cell stock is treated with PBS-EDTA and trypsin to detach the cells, and transfection medium is used from this point. Transfection medium consists of Dulbecco's Modified Eagle Medium (DMEM)+NEAA. To each well, 0.5 mL of the cell mixture is added (1.3×10^5 is the desired cell concentration) and the cells are incubated at 37° C. overnight. Twenty four hours before the assay, cells are transfected with PEPT1. Transfection mixture is prepared by mixing 600 μL of serum free transfection medium, 18 μL of FuGene6 (Roche Diagnostics), and 11 μg of the PepT1 DNA. The transfection reagent-DNA complex is incubated for 20 minutes and 24 μL of the reagent-DNA complex is added to each well.
J. Pharm. Exper Ther. 310:437-445). […] Uptake media consists of 140 mM NaCl, 5.4 mM KCl, 1.8 mM CaCl2, 0.8 mM MgSO4, 5 mM Glucose, 25 mM tris(hydroxymethyl)aminomethane buffer (TRIS). The solution is then brought to pH 6.0 using 2-(N-morpholino)ethanesulfonic acid. The incubation volume is 500 μL and is performed at room temperature for 3 minutes. To stop the uptake at the conclusion of the incubation time, the uptake media is aspirated off of the cell monolayer and 500 μL of ice cold PBS added to the well. The cells are washed 3 times with 500 μL of room temperature PBS without Ca^+2 and Mg^+2. The cells are then lysed with 300 μL of 1% Triton X100 H2O solution. […] A no inhibitor control is established and the percent inhibition of each prodrug is calculated with respect to this control.
The incubation and sampling procedures are exactly the same as the PepT1 screen described above.

[2] = 1 h, 10 µM, pH 7.4
Protocol: Frozen human duodenum intestinal homogenates (1:2 tissue:buffer ratio using 100 mM Tris Phosphate buffer, pH 7.4) are obtained from Celsius In Vitro Technologies (Baltimore, Md.) that were both phenylmethylsulphonylfluoride (PMSF) and EDTA free.
All original tissue collections are performed at 4° C. and immediately frozen at −70° C. Human intestinal homogenates are thawed and diluted to a final protein concentration of 0.5 mg/mL in 100 mM PBS buffer, pH 7.4 immediately prior to the incubations.
Incubations are conducted in 96-well plates and all prodrugs are run in duplicate on each day. Stock prodrug solutions are prepared in water at a concentration of 1 mM. A 200 μL aliquot of 0.5 mg/mL intestinal homogenate and 196 μL of 100 mM PBS buffer are placed in a 96-well plate in a 37° C. water bath. Using a 96-well pipettor, 4 μL of the 1 mM prodrug solution is transferred into the homogenate. Immediately after addition of the prodrug (time zero) and after 1 hour incubation, 50 μL samples of the incubation mixture are removed using an automated disposable simultaneous 96 well pipettor and added directly to 200 μL of methanol quench solution containing 100 ng/mL of Internal Standard. The samples are then centrifuged at 3500 rpm for 5 minutes at 10° C. The supernatant (200 μL) is transferred to a final 96 well PCR plate and sealed for analysis by LC/MS/MS.
Concentrations of hydrolyzed active metabolite in the incubation mixtures are determined using LC/MS/MS detection on a Sciex API 4000 quadrapole mass spectrometer with Analyst version 1.4.2, TurbolonSpray, positive ionization, and Selected Reaction Monitoring (SRM). […]
Averages and standard deviations are calculated using Microsoft® Office Excel® 2007. Amount of hydrolysis is determined as a molar percentage of active metabolite formed relative to prodrug concentration added.

| IC50 (hPepT1; 0.0625 to 25 mM, read-out: hPepT1 [3H]Gly-Sar uptake inhibition IC50) [µM] | inhibition at 5000 µM (hPepT1) [%] | human intestinal hydrolysis relative to Internal Prodrug A [2] [%] | SMILES | ED50 [1] [mg/kg] |
| --- | --- | --- | --- | --- |
| 250 | 87 | 44 | CSCC[C@H](N)C(=O)N[C@@]1(C(=O)O)CC2(CC2)[C@H]2[C@H](C(=O)O)[C@H]21.Cl [Example 6, (1S,2S,5R,6S)-2-[[(2S)-2-Amino-4-methylsulfanyl-butanoyl]amino]spiro[bi-cyclo[3.1.0]hexane-4,1′-cyclopropane]-2,6-dicarboxylic acid hydrochloride] | 4.31 |
|  | 78 | 34 | Cl.NCC(=O)N[C@@]1(C(=O)O)CC2(CC2)[C@H]2[C@H](C(=O)O)[C@H]21 [Example 7, (1S,2S,5R,6S)-2-[(2-Aminoacetyl)amino]spiro[bi-cyclo[3.1.0]hexane-4,1′-cyclo-propane]-2,6-dicarboxylic acid hydrochloride] |  |
